Here are results for two compounds from US20230355566A1, “POTENTIATION OF HELMINTH TREATMENT” (Elanco Tiergesundheit AG, priority 2019, published 2023).

In series [1] the test system is Fasciola hepatica (Sunny Corner isolate, Fashep-66), immature stage. The series is described as follows: Efficacy and synergy against immature stage of Fasciola hepatica in experimentally infected sheep (Example 3). Conditions: closantel 3.75 mg/kg, combination 40 and 3.75 mg/kg; for % Efficacy using arithmetic mean / % Efficacy using geometric mean: single oral treatment day 42, diamphenethide 40 mg/kg, vs untreated control; for Fluke Count, arithmetic mean / Fluke Count, geometric mean: single oral treatment day 42 after infection, diamphenethide 40 mg/kg, live fluke in liver day 91. Type of series: in vivo. How it is done:
In the following examples, all animals were confirmed free of infection with F. hepatica and found clinically healthy by a veterinarian prior to enrollment in the study. Doses were administered orally from suitably sized disposable syringes. The fluke counts and body weights were log-transformed (after adding a constant of 1 to the fluke counts only) and the distribution of the transformed data checked to see if they satisfied the assumption of normal distribution. Differences between treatment groups were analyzed by analysis of variance methods (ANOVA), as the assumptions of normal distribution were satisfied for log-transformed fluke count and log-transformed bodyweight, as well as for (untransformed) fluke measurements. Arithmetic […]), geometric […]), median and ranges were summarized for fluke counts, fluke measurements and bodyweight. A constant of one was applied for calculation of geometric means of fluke counts. The percentage efficacy for each treated group was calculated as follows: […] where FCC is the arithmetic mean fluke count of the control group and FCT is the arithmetic mean fluke count of the treated group. […] Note that expected synergy is defined as: […] Administered Concurrently with Closantel Against the Immature Stage of Fasciola hepatica Infections in Sheep This study was to assess the efficacy of […] (40 mg/kg) given concurrently with closantel (3.75 mg/kg), […] alone (40 mg/kg), and closantel alone (3.75 mg/kg) against F. hepatica in sheep (3-4 month Merino lambs) with treatment on day 42. This was a controlled, blinded, randomized study. On day 0, the sheep were experimentally infected with a single isolate of approximately 200 Sunny Corner ([…]-66) isolate F. hepatica metacercariae. The required number of […] up in carboxymethyl cellulose. Syringes were checked post-infection for retained […]. The infection was administered orally and each infective dose was followed by water administered orally. The sheep were randomized into treatment groups on the basis of day 41 body weight and allocated to groups as denoted in Table 3.1. Body weight was determined one day prior to treatment. All treatments were measured by volume and rounded to the nearest 0.1 mL. On day 42, and before feeding, the individual animals were treated once only with the treatment in Table 3.1. Once the animals had been treated they were returned to their pens and fed within one hour. Untreated control animals were also fed at this time. The liver with gall bladder and bile ducts intact were recovered from each animal on day 91 and processed for F. hepatica counts. The assessment of efficacy was based on the number of live fluke removed from the liver.

The subject of a further series is liver flukes. Conditions: cited from earlier work.
For series [2] the following is noted: deacylation to DAMD; cited from earlier work.
For series [3], the system named is Fasciola hepatica (Oberon isolate, Fashep-65), early immature stage. The series is described as follows: Efficacy against early immature stage of Fasciola hepatica in experimentally infected sheep (Example 2). The series is classed as in vivo. The following applies: closantel 10 mg/kg, combination 60 and 10 mg/kg. How it is done: In the following examples, all animals were confirmed free of infection with F. hepatica and found clinically healthy by a veterinarian prior to enrollment in the study. Doses were administered orally from suitably sized disposable syringes.
The fluke counts and body weights were log-transformed (after adding a constant of 1 to the fluke counts only) and the distribution of the transformed data checked to see if they satisfied the assumption of normal distribution. Differences between treatment groups were analyzed by analysis of variance methods (ANOVA), as the assumptions of normal distribution were satisfied for log-transformed fluke count and log-transformed bodyweight, as well as for (untransformed) fluke measurements.
Arithmetic means (Amean), geometric means (Gmean), median and ranges were summarized for fluke counts, fluke measurements and bodyweight. A constant of one was applied for calculation of geometric means of fluke counts.
The percentage efficacy for each treated group was calculated as follows:
% Efficacy=100×(FCC−FCT)/FCC
where FCC is the arithmetic mean fluke count of the control group and FCT is the arithmetic mean fluke count of the treated group. The formula was also applied using mean geometric fluke counts; these were calculated using log transformed data with 1 added as a constant to each fluke count and then subtracted following transformation.
Efficacy of Diamphenethide in Combination with Closantel in Oral Formulations Against the Early Immature Stage of Fasciola hepatica in Sheep
This study was to assess the efficacy of diamphenethide (60 mg/kg) given concurrently with closantel (10 mg/kg), diamphenethide alone (60 mg/kg), and closantel alone (10 mg/kg) against F. hepatica in sheep with treatment on day 14. This was a controlled, blinded, randomized study using […] Merino lambs.
On day 0, the sheep were experimentally infected with a target of 87 Oberon isolate (Fashep-65) F. hepatica metacercariae. The required number of metacercariae were prepared for infection in a water and 4% carboxymethylcellulose solution. Each infective dose was followed by water administered orally.
The sheep were randomized into treatment groups on the basis of day 11 body weight and allocated to groups as denoted in Table 2.1.
Body weight was determined on day 11 and doses were measured by volume and rounded to the nearest 0.1 mL. On day 14, and before feeding, the individual animals were treated once only with the Treatment in Table 2.1. Once the animals had been treated they were returned to their pens and fed within one hour. Untreated control animals were also fed at this time.
The liver with gall bladder and common bile duct intact were recovered on day 91 or 92 from each animal and processed for F. hepatica counts. […]

Setting [4] is: single oral treatment day 14, diamphenethide 60 mg/kg, vs untreated control.
[5] abbreviates: single oral treatment day 14 after infection, diamphenethide 60 mg/kg, live fluke in liver day 91 or 92.

As to `Cc1cc(C(C#N)c2ccc(Cl)cc2)c(Cl)cc1NC(=O)c1cc(I)cc(I)c1O` (stereo not drawn) [Closantel, N-[5-chloro-4-[(4-chlorophenyl)cyanomethyl]-2-methylphenyl]-2-hydroxy-3,5-diiodobenzamide], in series [1], the “% Efficacy using arithmetic mean” value came out at 40.1%; the “% Efficacy using geometric mean” value was found to be 40.7%; the “Fluke Count, arithmetic mean” value came to 54.0; the “Fluke Count, geometric mean” value is on record as 51.6.
With `CC(=O)Nc1ccc(OCCOCCOc2ccc(NC(C)=O)cc2)cc1` [Diamphenethide, N-[4-[2-[2-(4-acetamidophenoxy)ethoxy]ethoxy]phenyl]acetamide], in the series on liver flukes (flukes up to 6 weeks of age), the “Activity against early immature flukes” value is “highly effective”. Also, in the series with liver flukes (maturing flukes), the “Activity against flukes as they develop to maturity” value is “progressively lower activity”. In addition, the Metabolism entry in series [2] is “rapidly metabolized by deacylation”. In series [3] (setting [4]), the “% Efficacy using arithmetic mean” value turned out to be 98.3% and the “% Efficacy using geometric mean” value is 98.4%. Besides, in series [3] (setting [5]), the “Fluke Count, arithmetic mean” value worked out at 0.3 and the “Fluke Count, geometric mean” value came to 0.3. Further, in series [1], the “% Efficacy using arithmetic mean” value came to 36.1%; the “% Efficacy using geometric mean” value was determined as 41.5%; the “Fluke Count, arithmetic mean” value was 57.6; the “Fluke Count, geometric mean” value stood at 50.9.
